The results in this text go back to patent US20110224242A1, “STYRLYQUINOLINES, THEIR PROCESS OF PREPARATION AND THEIR THERAPEUTIC USES” (BIOALLIANCE PHARMA, priority 2008, published 2011).

Some results are limits rather than exact numbers.

Data set [1] is described as follows: in vitro. As to conditions: human. The class given is cell-based. How it is done:
The cytotoxicity of compounds was evaluated using un-infected and infected Hel_a-P4 cell and CEM leukemia cells. CEM cell were obtained from the American Type Tissue Collection (Rockville, Md.).
A serial dilution of drugs is done to evaluate the cytotoxicity concentration and is identified by CC50 (concentration of drug which induces 50% of cytotoxicity)
The HeLa-P4 was cultured in the presence or absence of compounds for 2 days. After this time period, cells were cultivated with MTT for 3 hours, further the medium is removed. And the lysis buffer is incubated for 1 hour, followed by plate reading at 540 nm in a microplate reader.

Data set [2] is described as follows: Stability in Hepes buffer 0.5 M pH 7.5 (UV spectrophotometry). The class given is physicochemical. As to conditions: HEPES 0.5 M pH 7.5, 37°, 50 μM (SQE94 and 79 at 25 μM). The procedure: 2.1. Hepes Buffer 0.5M, pH 7.5. 16 μl of drug at 25 mM, in 8 ml of Hepes Buffer. Different time points were done, Oh, 2 h, 4 h, 24 h, and 48 h.
Stability of the compounds was performed in HEPES Buffer 0.5 M (pH 7.5) at 37 O, at a concentration of 50 μM. Compounds SQE94 and 79 were tested at a concentration of 25 μM to avoid parasite precipitation phenomena. Typically, stock solutions of compounds in DMSO (25 mM) were diluted in HEPES Buffer. Dilutions were stored at 37° C., protected from light. Sampling was done at different time points. Samples were analyzed on an UV-spectrophotometer using a wavelength scan between 200 and 700 nm. Superposition of UV-spectra gives the qualitative aspect of the stability of the drug. Based on the Beer-Lambert law, percentage of degradation of the drug over time was calculated, when placed at the maximum absorption wavelength.

In data set [3] the target is T1, HBX2 HIV integrase (Human immunodeficiency virus type 1 group M subtype B, UniProt P04585).
T1 construct: contains the cDNA encoding the HBX2 HIV integrase; His tag (N, cleaved yes); made in house; host or cells: Escherichia coli BL21 (DE3)
The data set can be described thus: Strand transfer assay. The data set is classed as biochemical. How it is done:
The pET-15b-IN plasmid contains the cDNA encoding the HBX2 HIV integrase. His-tagged integrase protein was overexpressed in Escherichia coli BL21 (DE3) and purified under native conditions. Briefly, at an OD of 0.8, fusion protein expression was induced in bacterial cultures by the addition of IPTG (1 mM). Cultures were incubated for 3 h at 37° C., of ter which cells were centrifuged. The cell pellet was resuspended in ice-cold buffer A [20 mM Ths-HCl (pH 8), 1 M NaCl, 4 mM β-mercaptoethanol, and 5 mM imidazole], treated with lysozyme for 1 h on ice, and sonicated. After centrifugation (30 min at 10 000 rpm), the supernatant was filtered (0.45 μm) and incubated for at least 2 h with Ni-NTA agarose beads (Pharmacia). The beads were washed twice with 10 volumes of buffer A, 10 volumes of buffer A with 50 mM imidazole, and 10 volumes of buffer A with 100 mM imidazole. His-tagged integrase was then eluted with buffer A supplemented with 50 μM ZnSO4 and 1 M imidazole. […]
Processing, strand transfer reactions were performed using U5A-U5B-2, in buffer containing 20 mM Tris (pH 7.2), 50 mM NaCl, 10 mM DTT, 1 OmM MgCl2. […] Gels were analyzed using a STORM Molecular Dynamics phosphorimager and quantified with Image Quant™ 4.1 software.

Data set [4] can be described thus: Chemical stability at pH between 1 and 7. The class given is physicochemical. As to conditions: within less than 24 hrs, pH between 1 and 7.
For data set [5], the system named is wild type HIV-1 virus (NL 4.3 strains). The data set can be described thus: Antiviral activity assay on Hela P4 cells (beta-galactosidase, CPRG). The data set is classed as cell-based. As to conditions: Human immunodeficiency virus 1, HeLaP4; HeLa P4 cells, HIV-1 NL 4.3, 48 hours; read-out: P4 IC50. How it is done: The antiviral activity is determined by infecting HelaP4 cells with a wild type HIV-1 virus (NL 4.3 strains at 3 ng) on cells in presence or absence of drugs. A serial dilution of drugs is done to evaluate the EC50. The effective concentration is the concentration of product at which virus replication is inhibited by 50 percent. After 48 hours incubation, the quantification is done by the evaluation of β-Galactosidase produced by the infected Hela P4 cells. The viral activity is evaluated by colorimethc assay, CPRG, followed by plate reading at 570 nm with a reference of 690 nm. The CPRG test is a colorimetric assay which allows to quantity the β-galactosidase produced by HIV-1 infected indicator cells (the β-Gal gene being under the control of the HIV-1 LTR).

The test system is the same in data set [6]. The data set is described as follows: Antiviral activity assay CEM cells (p24 ELISA). The data set is classed as cell-based. As to conditions: Human immunodeficiency virus 1, CCRF-CEM; CEM cells, HIV-1 NL 4.3, 48 hours, p24; read-out: CEM. How it is done:
The activity is determined by infecting CEM cells with a wild type HIV-1 virus (NL 4.3 strains at 3 ng) on cells in presence or absence of drugs. A serial dilution of drugs is done to evaluate the EC50. […] After 48 hours incubation, the quantification is done by the evaluation of the viral protein p24 with a commercial Elisa Kit. P24 is a protein essential to the replication virus cycle. The quantification of this enzyme is proportional to the amount of virus produced by the infected cells.

Data set [7] addresses T1, HBX2 HIV integrase. The data set is described as follows: 3' LTR processing assay. The data set is classed as biochemical. How it is done: The pET-15b-IN plasmid contains the cDNA encoding the HBX2 HIV integrase. His-tagged integrase protein was overexpressed in Escherichia coli BL21 (DE3) and purified under native conditions. Briefly, at an OD of 0.8, fusion protein expression was induced in bacterial cultures by the addition of IPTG (1 mM). Cultures were incubated for 3 h at 37° C., of ter which cells were centrifuged. The cell pellet was resuspended in ice-cold buffer A [20 mM Ths-HCl (pH 8), 1 M NaCl, 4 mM β-mercaptoethanol, and 5 mM imidazole], treated with lysozyme for 1 h on ice, and sonicated. After centrifugation (30 min at 10 000 rpm), the supernatant was filtered (0.45 μm) and incubated for at least 2 h with Ni-NTA agarose beads (Pharmacia). The beads were washed twice with 10 volumes of buffer A, 10 volumes of buffer A with 50 mM imidazole, and 10 volumes of buffer A with 100 mM imidazole. His-tagged integrase was then eluted with buffer A supplemented with 50 μM ZnSO4 and 1 M imidazole. The integrase concentration was adjusted to 0.1 mg/mL in buffer A. The fusion protein was cleaved using thrombin and dialyzed overnight against 20 mM Ths-HCl (pH 8), 1 M NaCl, and 4 mM (3-mercaptoethanol. After removal of biotinylated thrombin by incubation with streptavidin-agarose magnetic beads (Novagen, Madison, Wis.), a second dialysis was performed for 2 h against 20 mM Ths-HCl (pH 8), 1 M NaCl, 4 mM mercaptoethanol, and 20% (v/v) ethylene glycol. Fractions were aliquoted and rapidly frozen at −80° C.
Oligonucleotides U5B (5′-[…]-3′), U5B-2 (5′-GTGTGGAAAATCTCTAGCA-3′), U5A (5′-[…]-3′) were purchased from Eurogentec (Liege, Belgium) and further purified on an 18% denaturing acrylamide/urea gel. For processing, strand transfer, 100 pmol of U5B, U5B-2, respectively, were radiolabeled using T4 polynucleotide kinase and 50 μCi of [γ-32P]ATP (3000 Ci/mmol). The T4 kinase was heat inactivated, and unincorporated nucleotides were removed using a Sephadex G-10 column (GE Healthcare). NaCl was added to a final concentration of 0.1 M, and complementary unlabeled strand USA was added to either U5B or U5B-2. The mixture was heated to 90° C. for 3 min, and the DNA was annealed by slow cooling.
Processing reaction was performed using U5A-U5B, in buffer containing 20 mM Tris (pH 7.2), 50 mM NaCl, 10 mM DTT, and 10 mM MgCl2. […] The reactions were stopped by phenol/chloroform extraction, and DNA products were precipitated with ethanol. The products were separated in TE containing 7 M urea and electrophoresed on an 18% denaturing acrylamide/urea gel. Gels were analyzed using a STORM Molecular Dynamics phosphorimager and quantified with Image Quant™ 4.1 software.

The nature of data set [8]: Stability by HPLC in PEG400 and Vitamine E-TPGS/PEG 400 mixtures. As to conditions: within only 3 hrs, mixtures of excipients. The class given is physicochemical. How it is done:
The second stability assay consists in the assessment according to standard HPLC analysis protocols over 24 hrs in PEG400 and Vitamine E-TPGS/PEG 400 mixtures, by focusing on the evolution of the concentration and peak purity of the compound. Compounds were dissolved in appropriate amounts of solvent and let under stirring protected from light for 24 hrs. Aliquots were transferred into eppendorfs and centrifuged at 10 000 g for 10 min. Supernatants were collected and appropriately diluted in DMSO/mobile phase mixtures before HPLC analysis. The Waters HPLC analysis system equipped with an ultraviolet detector and a Waters Symmetry Shield C18 column of 2.1 mm×50 mm ([…]) was used. A mobile phase of water/acetic acid 0.1% (Solvant A): Acetonitrile/acetic acid 0.1% (solvent B) mixture or a water/trifluoroacetic acid 0.1% (Solvant A): Acetonitrile/trifluoroacetic acid 0.1% (solvent B) mixture in the case of compound FZ41 was pumped according to a binary gradient described below, at a flow rate of 0.4 ml/min.

`COc1cc(/C=C/c2ccc3ccc(C(=O)O)c(O)c3n2)cc(O)c1O` [FZ41, reference compound] displayed an IC50 at 2 days in data set [1] of more than 100 µM. In addition, the “% of degradation” value amounted to 31.1% in data set [2] (2 hrs), 59.6% in data set [2] (4 hrs) and 64.6% in data set [2] (24 hrs). Also, the results for the IC50 in data set [3], in data set [5] and in data set [7] were 1.7 µM, 5 µM and 0.7 µM, respectively. The degradation rate in data set [4] is on record as 50-60%. Moreover, in data set [6], the EC50 was found to be 25 µM. Besides, the degradation result in data set [8] is “at least 10%”.
